For test [1], the system named is primary human whole blood cells. In words: Human whole blood PMA/anti-CD28-induced cytokine release. The test is classed as cell-based. The following applies: for IC50: read-out: IC50, PMA/anti-CD28-induced IL-5 release. From the text:
Hereafter, supernatant was carefully collected and tested at the most optimal dilution (predetermined by a titration study on control samples) in a human TNFα-specific ELISA (for the LPS stimulated samples) or in a human IL-5-specific or human G-CSF-specific ELISA (for the PMA/anti-CD28 stimulated samples) (Duoset, R&D systems USA).

The target of a further test is T1, GR (Homo sapiens, UniProt P04150).
T1 sequence (P04150 1-777): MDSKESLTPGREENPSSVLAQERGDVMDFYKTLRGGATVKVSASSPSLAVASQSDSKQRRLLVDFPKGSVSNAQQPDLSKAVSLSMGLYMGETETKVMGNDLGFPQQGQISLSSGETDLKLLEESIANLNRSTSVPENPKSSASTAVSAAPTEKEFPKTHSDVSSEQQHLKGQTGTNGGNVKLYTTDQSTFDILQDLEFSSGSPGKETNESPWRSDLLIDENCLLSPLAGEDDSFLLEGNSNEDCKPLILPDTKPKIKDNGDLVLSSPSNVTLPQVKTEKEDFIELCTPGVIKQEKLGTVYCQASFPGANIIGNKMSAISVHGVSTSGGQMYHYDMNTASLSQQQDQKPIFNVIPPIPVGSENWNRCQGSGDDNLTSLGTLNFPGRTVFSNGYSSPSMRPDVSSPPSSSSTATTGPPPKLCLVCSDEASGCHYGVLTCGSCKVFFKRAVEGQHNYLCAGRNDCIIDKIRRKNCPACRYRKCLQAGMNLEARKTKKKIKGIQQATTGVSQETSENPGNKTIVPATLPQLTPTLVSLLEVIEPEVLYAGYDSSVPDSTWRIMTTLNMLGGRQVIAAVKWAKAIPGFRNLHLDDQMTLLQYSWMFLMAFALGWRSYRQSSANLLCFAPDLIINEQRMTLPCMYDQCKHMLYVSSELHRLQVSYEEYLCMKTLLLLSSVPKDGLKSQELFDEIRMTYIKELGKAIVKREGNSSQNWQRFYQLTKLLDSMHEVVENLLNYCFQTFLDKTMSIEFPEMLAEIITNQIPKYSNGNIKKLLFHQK
In words: U2OS GR.G9 IFNγ/TNFα-induced MCP-1 release (repression). In kind it is cell-based. Details: expressed in transfected cells; host or cells: U2OS (U2OS GR.G9). The following applies: for Max. eff., repression of MCP-1 release: IFNγ/TNFα, relative to prednisolone (100%). The procedure: To determine the repressive activity of GR ligands, cell line U2OS GR.G9, the human osteoblastic cell line U2OS, stably transfected with human GR, was used. Cells (10^4 cells/well) were incubated in 384-wells plates, in the presence of 50 ng/ml TNFα (R&D systems)/100 ng/ml IFNγ (Peprotech) and compound, for 18 hours. Hereafter, a mixture of two different antibodies to hMCP-1, one Eu-labeled and one APC-labeled, were added. One hour later the time-resolved fluorometric resonance energy transfer (TR-FRET) signal was measured. (for more detailed information see Supportive Information) (SI text).
U2OS GR.G9 cells (10^4 cells/well) in Dulbecco's MEM / HAM F12 medium supplemented with 5% charcoal treated bovine calf serum (Hyclone) (v/v) and Penicillin (10 U/ml) -Streptomycin (10 μg/ml) were incubated in 384-wells plates, in the presence of 50 ng/ml TNFα (R&D systems) / 100 ng/ml IFNγ (Peprotech) and compound, for 18 hours in a humidified atmosphere at 37°C under 6.5% CO2. Hereafter, a mixture of 2.2 nM anti-hMCP-1 labeled with fluorescent donor Europium (Eu) and 16.6 nM anti-hMCP-1 labeled with fluorescent acceptor Allophycocyanin (APC) was added to each well and left at roomtemperature for 1 hour. Finally, the time-resolved fluorometric resonance energy transfer (TR-FRET) signal was measured with the Victor^2TM V, 1420 Multilabel Counter (Wallac). Using 4-parameter curve fitting, IC50 values for the compounds were determined.

The subject of the next test is THP-1 cells. In words: THP-1 induction of FKBP51, GILZ, DUSP1. The test is classed as cell-based, human. The following applies: for EC50: Homo sapiens, THP-1, no stimulus; for Max. eff., DUSP1 induction / Max. eff., FKBP51 induction / Max. eff., GILZ induction: THP-1, prednisolone = 100%. The protocol: THP-1 cells were incubated with glucocorticoid in the presence of either DMSO (control) or IFNγ/TNFα (220 ng/ml/375 ng/ml). After 6 hours total RNA was isolated and further processed for microarray hybridization as described for the HepG2 cells. The data from all microarray experiments have been deposited in the NCBI Gene Expression Omnibus (GEO) under accession number (identifier will be included in proof). […] Expression of FKBP51, MCP-1, IL-6 and IL-8 protein was measured by specific […]; #A[…] [MCP-1], #A[…] [IL-6] and #A[…] [IL-8]) according to the manufacturer manual. […] Expression of FKBP51, DUSP1 and GILZ was measured by Q-PCR according to the same procedure as described for the HepG2 cells. In this case the following primer-pairs were used: for GAPDH: [NT] and [NT]; for FKBP51: [NT] and [NT]; for DUSP1: [NT] and [NT]; for GILZ: [NT] and [NT]. For the evaluation of protein expression, cells were incubated overnight with a whole dose range of compounds. Supernatants were collected to determine cytokine levels and cell lysates were generated by repeated freeze-thaw cycles to measure expression of FKBP51 protein. Expression of FKBP51, MCP-1, IL-6 and IL-8 was measured by specific […]; #A[…] [MCP-1], #A[…] [IL-6] and #A[…] [IL-8]) according to the manufacturer manual. […] Samples were incubated for 60 min at 23 C. […] Plates were measured using an EnVision-Alpha Reader.

[2] abbreviates: human whole blood, P/28, prednisolone = 100%.
The mark [3] stands for this setting: read-out: EC50, DUSP1 induction.
Where [4] appears, read: read-out: EC50, FKBP51 induction.

Results on 2 compounds are retold here after article PMC3495945, “Org 214007-0: A Novel Non-Steroidal Selective Glucocorticoid Receptor Modulator with Full Anti-Inflammatory Properties and Improved Therapeutic Index” (PLoS ONE, 2012).

Read-outs that look alike come from different tables or passages of the source.

For `C[C@]12C=CC(=O)C=C1CC[C@@H]1[C@@H]2[C@@H](O)C[C@@]2(C)[C@H]1CC[C@]2(O)C(=O)CO` [prednisolone, reference compound], the IC50 in test [1] (Homo sapiens, Whole blood cell, 24 h) worked out at 6.76 nM. In addition, the “Max. eff., IL-5 repression” value in test [1] (setting [2]) stood at 100%. In addition, at GR, the “Max. eff., repression of MCP-1 release” value is on record as 100 (±9.6) %. In addition, the EC50 in the test with THP-1 cells (setting [3]) worked out at 67.4 nM. Moreover, the EC50 in the test on THP-1 cells (setting [4]) came out at 65.8 nM. Moreover, the EC50 in the test with THP-1 cells (read-out: EC50, GILZ induction) was 60.2 nM. Further, in the test on THP-1 cells, the “Max. eff., DUSP1 induction” value was determined as 100%; the “Max. eff., FKBP51 induction” value is 100%; the “Max. eff., GILZ induction” value was 100%.

Regarding `Cc1nnsc1C(=O)N[C@H]1CCN2c3ccc(C#N)cc3[C@@H](C)c3ccccc3[C@@H]2C1` [Org 214007-0], the EC50 in test [1] (Whole blood cell, human whole blood, 24 hours, read-out: EC50, enhancement of PMA/anti-CD28-induced G-CSF release) was determined as 186 nM; in the test with THP-1 cells (setting [3]) it was 6.4 nM; in the test on THP-1 cells (setting [4]), 8 nM; in the test on THP-1 cells (read-out: EC50, GILZ induction), 13.7 nM. Also, the IC50 in test [1] (Whole blood cell, human whole blood, 24 hours) stood at 14.4 nM; at GR (IFNγ (100 ng/ml)/TNFα (50 ng/ml), 18 hours), 0.36 nM. The “Max. eff., G-CSF induction” value in test [1] (setting [2]) was 39 (±7.8) %. Also, the “Max. eff., IL-5 repression” value in test [1] (setting [2]) is recorded as 64 (±11) %. Besides, the “Max. eff., repression of MCP-1 release” value is reported as 81% on GR and 81 (±16) % at GR (listed as Org). In addition, in the test with THP-1 cells, the “Max. eff., DUSP1 induction” value was 41 (±6) %. For the same compound, the “Max. eff., FKBP51 induction” value in the test on THP-1 cells is on record as 42 (±8) %. Also, the “Max. eff., GILZ induction” value in the test on THP-1 cells was 13 (±5) %.
